In article PMC7450057, “Enhancing intracellular accumulation and target engagement of PROTACs with reversible covalent chemistry” (Nature Communications, 2020):

Target: T1, {BTK-PROTAC-CRBN} ternary complex (Homo sapiens, UniProt Q06187+Q96SW2)
T1 construct: full-length CRBN was first cloned into pcDNA3 containing EGFP; expressed in transfected cells; host or cells: HEK293T/17
Assay: BTK-SPPIER imaging of ternary complex formation in live cells
Assay type: cell-based
Conditions: HEK293T/17 cells, 10 µM
Description: To visualize small molecule-induced protein–protein interactions (PPIs), we recently applied fluorophore phase transition-based principle and designed a PPI assay named separation of phases-based protein interaction reporter (SPPIER)[36]. A SPPIER protein design includes three domains, a protein-of-interest, an enhanced GFP (EGFP), and a homo-oligomeric tag (HOTag). Upon small molecule-induced PPI between two proteins-of-interest, multivalent PPIs from HOTags drive EGFP phase separation, forming brightly fluorescent droplets. […] If PROTACs can induce {BTK-PROTAC-CRBN} ternary complex formation in cells, they will crosslink the BTK^KD-EGFP-HOTag6 tetramers and the CRBN-EGFP-HOTag3 hexamers to produce EGFP phase separation, which can be conveniently visualized with a fluorescence microscope. […]
HEK293T/17 cells were transiently transfected with the plasmid using calcium phosphate transfection reagent or lipofectamine. […] Fluorescence images were acquired with an exposure time of 50 ms for EGFP. […]
For analysis of the SPPIER signal, images were processed in imageJ. The sum of droplet pixel fluorescence intensity and cell pixel intensity was scored using the Analyze Particle function in imageJ.

T1 sequence (Q06187 382-659 limits assumed): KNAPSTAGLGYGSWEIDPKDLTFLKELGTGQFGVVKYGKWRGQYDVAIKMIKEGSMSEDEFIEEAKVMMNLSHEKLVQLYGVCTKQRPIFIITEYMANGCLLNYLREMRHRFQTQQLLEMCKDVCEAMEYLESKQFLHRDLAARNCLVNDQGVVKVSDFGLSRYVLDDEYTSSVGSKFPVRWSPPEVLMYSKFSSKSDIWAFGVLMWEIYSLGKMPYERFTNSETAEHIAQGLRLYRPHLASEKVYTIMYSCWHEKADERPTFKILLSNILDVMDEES
T1 sequence (Q96SW2 whole entry): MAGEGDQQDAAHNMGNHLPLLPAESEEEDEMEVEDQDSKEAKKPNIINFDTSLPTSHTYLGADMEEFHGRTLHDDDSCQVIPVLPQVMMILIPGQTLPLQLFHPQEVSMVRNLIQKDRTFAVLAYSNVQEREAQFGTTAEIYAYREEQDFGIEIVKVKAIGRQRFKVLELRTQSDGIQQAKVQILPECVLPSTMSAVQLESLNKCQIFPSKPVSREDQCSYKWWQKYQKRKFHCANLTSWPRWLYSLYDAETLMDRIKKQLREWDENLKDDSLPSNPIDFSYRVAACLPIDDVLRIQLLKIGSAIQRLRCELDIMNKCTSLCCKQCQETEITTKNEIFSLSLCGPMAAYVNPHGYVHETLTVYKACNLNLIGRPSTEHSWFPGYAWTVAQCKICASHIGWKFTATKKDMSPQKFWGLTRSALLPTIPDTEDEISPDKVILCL

CN(CCCNC(=O)CNc1cccc2c1C(=O)N(C1CCC(=O)NC1=O)C2=O)C(C)(C)C=C(C#N)C(=O)N1CCC[C@@H](n2nc(-c3ccc(Oc4ccccc4)cc3)c3c(N)ncnc32)C1 (stereo partly shown) [RC-1]
green fluorescent droplets (ternary complex formation): induced appreciable green fluorescent droplets
